Reference: patent publication US5939385A, “Transglutaminase cross-linkable polypeptides and methods relating thereto” (ZymoGenetics, Inc., priority 1995, dated 1999)
No end group written: not given here.

Target: T1, recombinant Factor XIII (rFXIIIa) (Homo sapiens, UniProt P00488)
T1 construct: made in house
T1 sequence (P00488 39-732 limits assumed): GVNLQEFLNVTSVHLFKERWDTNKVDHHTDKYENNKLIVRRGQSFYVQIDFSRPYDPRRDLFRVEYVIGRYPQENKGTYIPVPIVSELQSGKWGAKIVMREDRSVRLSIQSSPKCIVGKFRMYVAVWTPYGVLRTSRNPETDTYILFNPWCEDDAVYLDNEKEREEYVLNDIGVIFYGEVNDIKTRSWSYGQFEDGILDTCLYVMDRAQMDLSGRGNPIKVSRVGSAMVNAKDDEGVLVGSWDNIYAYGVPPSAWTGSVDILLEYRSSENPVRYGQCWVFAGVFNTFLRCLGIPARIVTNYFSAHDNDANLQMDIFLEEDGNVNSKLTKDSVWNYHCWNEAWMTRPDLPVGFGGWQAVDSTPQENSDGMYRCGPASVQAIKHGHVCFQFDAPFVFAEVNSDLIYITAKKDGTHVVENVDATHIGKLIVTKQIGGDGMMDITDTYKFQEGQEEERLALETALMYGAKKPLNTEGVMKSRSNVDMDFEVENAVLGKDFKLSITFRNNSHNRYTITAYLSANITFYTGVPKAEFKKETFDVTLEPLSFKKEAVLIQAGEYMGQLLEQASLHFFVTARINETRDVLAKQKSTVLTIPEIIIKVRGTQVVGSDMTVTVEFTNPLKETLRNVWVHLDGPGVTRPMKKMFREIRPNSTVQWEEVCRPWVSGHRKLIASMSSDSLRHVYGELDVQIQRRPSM
Assay: Factor XIII cross-linking assay of test polypeptide substrates (HPLC area % vs time)
Type: biochemical
Settings: for Monomer Consumption d[S]/dt (rate of substrate utilization) / Crosslinking d(2[S-])/dt (rate of monomer incorporation into dimers) / Hydrolysis d[-NH3]/dt (hydrolysis = deamidation): initial rate, 2mM substrate, 40 ug/ml rFXIIIa (preactivated), 2.0 U/ml Thrombin, 2.5 mM CaCl2, pH 7.4; for Monomer Consumption d[S]/dt (rate of substrate utilization): 125 mM NaCl, 50 mM TrisHCl; for Hydrolysis %: share of hydrolysis (deamidation) relative to hydrolysis plus crosslinking, same reaction conditions
Protocol: Polypeptides are screened for the ability to form transglutaminase-catalyzed cross-links using a cross-linking assay as described in more detail below. […] Each reaction receives 50 mM CaCl2 to a final concentration of 2.5 mM. A negative control for each test substrate is also prepared in which the reaction lacks a transglutaminase (e.g., Factor XIII). A positive control of the fibrinogen polypeptide (The-Ile-Gly-Glu-Gly-Gln-Gln-His-His-Leu-[…]-Gln-Ala-Gly-Asp-Val) is used for each set of reactions. The reactions are initiated by the addition of 40 μg/ml of transglutaminase (e.g., recombinant Factor XIII) followed by 0.1 unit of bovine thrombin (Enzyme Research Laboratories, Inc., South Bend, Ind.) to each solution, except the negative controls. The reactions are incubated in a 37° C. water bath. A time course of 10 μl samples are taken from each reaction at 0 minutes, 30 minutes, 60 minutes, 120 minutes and overnight. The reactions are stopped by boiling for one minute. After the reactions are terminated, each sample is diluted to 50 μl with 40 μl of TBS buffer (120 mM NaCl, 50 mM Tris (pH 7.6)) and the samples are prepared for HPLC analysis.
Each sample is chromatographed on a C-18 reverse phase HPLC column (Vydac, Hesperia, Calif. or the like) using a gradient of 0-40% B in 30 minutes (Solvent A: 0.05% trifluoroacetic acid (TFA) in water and Solvent B: 0.045% TFA in 80% acetonitrile, 20% water) on a Hewlett Packard 1090 Series II HPLC or the like. The signal is detected at a wavelength of 215 nm. The area % of each reaction product is collected and plotted versus time to determine the rates of polypeptide utilization dimer formation and multimer formation. A deamidation ratio is determined by dividing the deamidation rate by the dimerization rate.
The ability of the test polypeptides to form Factor XIII-induced multimers, and the susceptibility of the polypeptides to deamidation were assessed using the method described in detail below.
Approximately 0.5 mg of lyophilized polypeptide was dissolved in 50 mM Tris, 125 mM NaCl (pH 7.6) to give a final concentration of 2 mM by weight. […] Each test polypeptide solution received 50 mM CaCl2 to a final concentration of 2.5 mM. For each reaction, a negative control lacking Factor XIII was included. A positive control of the fibrinogen polypeptide Thr-Ile-Gly-Glu-Gly-Gln-Gln-His-His-Leu-Gly-Gly-Ala-Lys-Gln-Ala-Gly-Asp-Val was used for each set of reactions. The reactions were initiated by the addition of 40 μg/ml of recombinant Factor XIII followed by 0.1 unit of bovine thrombin (Enzyme Research Laboratories, Inc.) to each solution, except the negative controls. The reactions were incubated in a 37° C. water bath. Samples of 10 μl were taken from each reaction at 0 minutes, 30 minutes, 60 minutes, 120 minutes and overnight. The reactions were stopped by boiling for one minutes. The samples were diluted to 50 μl TBS buffer (120 mM NaCl, 50 mM Tris (pH 7.6)), and the samples were prepared for HPLC analysis.
Each reaction was chromatographed on a C-18 reverse phase HPLC column (Vydac, Hesperia, Calif., or the like) using a gradient of 0-40% B in 30 minutes (solvent A: 0.05% TFA in water and Solvent B: 0.045% TFA in 80% acetonitrile/20% water) on a Hewlett Packard 1090 Series II HPLC. The signal was detected at a wavelength of 215 nm. The area % of each reaction product was collected and plotted versus time to determine the rates of polypeptide utilization and dimer formation. A deamidation ratio was determined by dividing the deamidation rate by the dimerization rate. […] The abbreviations used in Table 1 are as follows: d[S]/dt indicates the rate of substrate utilization, d[S2 ]/dt indicates the rate of dimer formation and (-NH2 /S2) indicates the relative rates of deamidation to dimerization. The initial rates were normalized to that of the fibrinogen polypeptide Thr-Ile-Gly-Glu-Gly-Gln-Gln-His-His-Leu-Gly-Gly-Ala-Lys-Gln-Ala-Gly-Asp-Val. […]

Row | Substance | Monomer Consumption d[S]/dt (rate of substrate utilization) | Crosslinking d(2[S-])/dt (rate of monomer incorporation into dimers) | Hydrolysis d[-NH3]/dt (hydrolysis = deamidation) | Hydrolysis % [%]
1 | TIGEGQHHLGGAKQAGDV [TIGEGQ-- HHLGGAKQAGDV] | -12.8 uM (monomer)/min | 11.4 uM (monomer)/min | 0.6 uM (monomer)/min | 5
2 | VGQHHLGGAKVPG [VGQ-- HHLGGAKVPG] | -18.0 uM (monomer)/min | 16.2 uM (monomer)/min | 0.0 uM (monomer)/min | 0
3 | TIGEGQQHHLGGAKQAGDV [TIGEGQQHHLGGAKQAGDV, Thr-Ile-Gly-Glu-Gly-Gln-Gln-His-His-Leu-Gly-Gly-Ala-Lys-Gln-Ala-Gly-Asp-Val, reference compound] | -20.0 uM (monomer)/min | 16.4 uM (monomer)/min | 5.2 uM (monomer)/min | 24
4 | VPGVGQHHLGGAKVPGVG [VPGVGQ-- HHLGGAKVPGVG] | -20.8 uM (monomer)/min | 15.8 uM (monomer)/min | 1.8 uM (monomer)/min | 10
5 | EGQHHLGGAKQA [-- EGQ-- HHLGGAKQA--] | -10.8 uM (monomer)/min | 9.8 uM (monomer)/min | 0.0 uM (monomer)/min | 0
6 | GEGQHHLGGAKQAG [-- GEGQ-- HHLGGAKQAG--] | -13.1 uM (monomer)/min | 11.2 uM (monomer)/min | 0.4 uM (monomer)/min | 3
7 | TIGEGQHHLGGAKAGDV [TIGEGQ-- HHLGGAK-- AGDV] | -10.0 uM (monomer)/min | 8.8 uM (monomer)/min | 1.4 uM (monomer)/min | 14
8 | TIGEGQHHLGAKQAGDV [TIGEGQ-- HHLG-- AKQAGDV] | -7.0 uM (monomer)/min | 4.0 uM (monomer)/min | 3.0 uM (monomer)/min | 43
9 | EGQHHLGAKQAG [-- EGQ-- HHL-- GAKQAG--] | -6.0 uM (monomer)/min | 3.0 uM (monomer)/min | 5.4 uM (monomer)/min | 64
10 | VPGVGLSQSKVGVPGVG [VPGVGLSQSKVGVPGVG] | -32.0 uM (monomer)/min | 15.0 uM (monomer)/min | 12.5 uM (monomer)/min | 45
11 | VGGQHHLGGAKQVPG [VGGQ-- HHLGGAKQVPG] | 11.0 uM (monomer)/min | 11.0 uM (monomer)/min | 0.0 uM (monomer)/min | 0
12 | TIGEGQHHLGAKQAGDV [TIGEGQ-- HHL-- GAKQAGDV] | -8.4 uM (monomer)/min | 3.6 uM (monomer)/min | 5.4 uM (monomer)/min | 60
13 | GQHHLGGAKQ [-- GQ-- HHLGGAKQ--, Gly-Gln-His-His-Leu-Gly-Gly-Ala-Lys-Gln] | -6.9 uM (monomer)/min | 6.2 uM (monomer)/min | 0.0 uM (monomer)/min | 0
14 | LSQSKVG [LSQSKVG] | -5.2 uM (monomer)/min | 6.8 uM (monomer)/min | 1.2 uM (monomer)/min | 15
15 | IGEGQHHLGGAKQAGD [-- IGEGQ-- HHLGGAKQAGD--] | -12.5 uM (monomer)/min | 14.1 uM (monomer)/min | -1.4 uM (monomer)/min | 0
16 | GQHHLGAKQA [-- GQ-- HHL-- GAKQA--] | -8.4 uM (monomer)/min | 8.4 uM (monomer)/min | -0.2 uM (monomer)/min | 0
17 | VPGVGGQHHLGGAKQVPGVG [VPGVGGQ-- HHLGGAKQVPGVG] | -12.8 uM (monomer)/min | 11.8 uM (monomer)/min | 0.0 uM (monomer)/min | 0
18 | GQHHLGGAKA [-- GQ-- HHLGGAK-- A--] | -2.4 uM (monomer)/min | 1.8 uM (monomer)/min | 0.8 uM (monomer)/min | 31
19 | GQHHLGAKQ [-- GQ-- HHLG-- AKQ--] | -4.7 uM (monomer)/min | 4.9 uM (monomer)/min | 0.0 uM (monomer)/min | 0
20 | GQHHLGGAKQG [GQ-- HHLGGAKQG] | -4.4 uM (monomer)/min | 4.4 uM (monomer)/min | 0.0 uM (monomer)/min | 0
21 | GVGGQHHLGGAKQVP [GVGGQ-- HHLGGAKQVP] | -9.8 uM (monomer)/min | 7.6 uM (monomer)/min | 0.0 uM (monomer)/min | 0
